Reference: patent publication US20240238425A1, “HSD17B13 Inhibitors and/or Degraders” (Pfizer Inc., priority 2022, published 2024)

Test system: HiBiT-HSD17β13 fusion protein (N-terminal HiBiT-tagged HSD17β13 isoform D) in Huh7 HiBiT-HSD17β13 OE cells
Experiment: Whole-cell Huh7-HSD17B13 HiBiT assay (degrader potency and maximal efficacy, luminescence readout)
Format: cell-based, human
Conditions: 24 hour incubation, geometric mean, * = geometric mean for all forms tested (parent and salt forms); for DC50: read-out: Huh7_HIBIT-HSD17β13_DC50 GMean DC50; for Huh7_HIBIT-HSD17β13_DC50 GMean Asymptote Maximum: max. concentration 1 μM
Description: Degrader potency and maximal efficacy of test compounds were determined using a whole-cell Huh7-HSD17B13 HiBiT assay, utilizing a luminescence readout. A HiBiT tag was fused to the N-terminus of HSD17β13, and therefore the HiBiT luminescence signal produced in the assay was proportional to the level of HiBiT-HSD17β13 fusion protein in a sample.
A Huh7 HiBiT-HSD17β13 OE cell line was generated using electroporation with an N-terminal HiBiT-tagged HSD17β13 isoform D overexpression plasmid, followed by geneticin selection to produce a stable pool. Clones were created with varying HiBiT signals to optimize HiBiT HSD17 β13 ratios. A clone with similar HSD17β13 expression levels as human primary hepatocytes was selected for the compound screen.
Greiner 384-well white opaque, flat bottom, tissue culture treated plates (Greiner #781080) were used for both HiBiT and CTG assays. The treated plates were spotted with 25 nL of a compound which had been serial diluted 1 in 3.162 in 100% DMSO for an 11-point concentration response curve, with duplicate points at each concentration. The maximum concentration of the compounds was 1 mM, which was later diluted with cell suspension for a maximum concentration of 1 μM). High percentage effect (HPE) wells and zero percentage effect (ZPE) wells located in columns 1 and 24 were spotted with 25 nL of DMSO (Sigma #D2650) using an ECHO Acoustic Liquid Handler (Labcyte Echo 550 Series). Each plate was performed in duplicate.
The Huh7 HiBiT-HSD17β13 OE cells were plated on top of a compound or a DMSO control at 3,000 viable cells/well in 25 μL growth media (DMEM (Gibco #10569), 10% FBS HI (Gibco #16140), 1× Pen/Strep (Gibco #15070), 1×MEM Non-Essential Amino Acids (Gibco #11140), and 300 μg/mL Geneticin (Gibco #10131) in columns 2-24 of the plates. Huh7 parental cells were plated using the same parameters in column 1 (HPE) in the same culture medium, excluding Geneticin selection. Cells were incubated overnight with the compounds for 24 hours (with lid) at 37° C. ([…]).
Each assay was conducted after a 24 hour incubation period. In the HiBiT assay plates, 25 μL of complete Nano-Glo HiBiT Lytic detection system (Promega #PRN3040), consisting of HiBiT Lytic Buffer with the addition of 1:100 LgBiT Protein and 1:50 Substrate, was added to each well. In CTG counter screen plates, 25 μL of Cell Titer-Glo Luminescent Reagent (Promega #G7573) was added to each well. Both plates were centrifuged for 2 minutes at 1000 rpm and incubated at room temperature, in the dark, for 10 minutes. Then Luminescence was read using an EnVision Plate Reader (Perkin Elmer PE2103).
The raw data from the Envision Plate Reader was expressed as relative luminescence units (RLUs) for each well of the assay plates. Using HPE and ZPE controls, the % effect was calculated for each sample well as follows: Percent effect=[(sample RLU−HPE RLU)\(ZPE RLU−HPE RLU)]*100. The percent effect was plotted versus the compound concentration and a 50% degradation ([…]) was determined using a four-parameter logistic dose response equation. The raw data was analyzed using ABase (IDBS).

| DC50 [nM] | SMILES | Huh7_HIBIT-HSD17β13_DC50 GMean Asymptote Maximum |
| --- | --- | --- |
| 0.16 | Cn1c(=O)n(C2CCC(=O)NC2=O)c2ccc(CCCN3Cc4ccc(-c5ccc6cn(C7CCC(CNC(=O)c8cc(F)c(O)c(F)c8F)CC7)nc6c5)nc4C3)cc21 (racemic) [Example 2, N-{[(1r,4r)-4-{6-[6-(3-{1-[(3RS)-2,6-Dioxopiperidin-3-yl]-3-methyl-2-oxo-2,3-dihydro-1H-benzimidazol-5-yl}propyl)-6,7-dihydro-5H-pyrrolo[3,4-b]pyridin-2-yl]-2H-indazol-2-yl}cyclohexyl]methyl}-2,3,5-trifluoro-4-hydroxybenzamide] | 83* % |
| 0.19 | Cl.Cn1c(=O)n(C2CCC(=O)NC2=O)c2ccc(CCCN3CCN(c4nccc(-c5nc(C67CCC(CNC(=O)c8cc(F)c(O)c(F)c8F)(CC6)CC7)no5)n4)CC3)cc21 (racemic) [Example 3, N-{[4-(5-{2-[4-(3-{1-[(3RS)-2,6-Dioxopiperidin-3-yl]-3-methyl-2-oxo-2,3-dihydro-1H-benzimidazol-5-yl}propyl)piperazin-1-yl]pyrimidin-4-yl}-1,2,4-oxadiazol-3-yl)bicyclo[2.2.2]octan-1-yl]methyl}-2,3,5-trifluoro-4-hydroxybenzamide, hydrochloride salt] | 84* % |
| 0.38 | Cn1c(=O)n(C2CCC(=O)NC2=O)c2ccc(CCCN3CCN(c4nccc(-c5nc(C67CCC(CNC(=O)c8cc(F)c(O)c(F)c8F)(CC6)CC7)cs5)n4)CC3)cc21.O=CO (racemic) [Example 4, N-{[4-(2-{2-[4-(3-{1-[(3RS)-2,6-Dioxopiperidin-3-yl]-3-methyl-2-oxo-2,3-dihydro-1H-benzimidazol-5-yl}propyl)piperazin-1-yl]pyrimidin-4-yl}-1,3-thiazol-4-yl)bicyclo[2.2.2]octan-1-yl]methyl}-2,3,5-trifluoro-4-hydroxybenzamide, formate salt] | 84% |

Continued, compound first:

| SMILES | DC50 [nM] | Huh7_HIBIT-HSD17β13_DC50 GMean Asymptote Maximum |
| --- | --- | --- |
| Cl.Cn1c(=O)n(C2CCC(=O)NC2=O)c2ccc(CCCN3Cc4ccc(-c5ccc6cn(C7CCC(CNC(=O)c8cc(F)c(O)c(F)c8F)CC7)nc6c5)cc4C3)cc21 (racemic) [Example 1, N-{[(1r,4r)-4-{6-[2-(3-{1-[(3RS)-2,6-Dioxopiperidin-3-yl]-3-methyl-2-oxo-2,3-dihydro-1H-benzimidazol-5-yl}propyl)-2,3-dihydro-1H-isoindol-5-yl]-2H-indazol-2-yl}cyclohexyl]methyl}-2,3,5-trifluoro-4-hydroxybenzamide, hydrochloride salt] | 0.11 | 87* % |
| Cn1c(=O)n(C2CCC(=O)NC2=O)c2ccc(CCCN3CCN(c4nccc(-c5csc(C67CCC(CNC(=O)c8cc(F)c(O)c(F)c8F)(CC6)CC7)n5)n4)CC3)cc21 (racemic) [Example 5, N-{[4-(4-{2-[4-(3-{1-[(3RS)-2,6-Dioxopiperidin-3-yl]-3-methyl-2-oxo-2,3-dihydro-1H-benzimidazol-5-yl}propyl)piperazin-1-yl]pyrimidin-4-yl}-1,3-thiazol-2-yl)bicyclo[2.2.2]octan-1-yl]methyl}-2,3,5-trifluoro-4-hydroxybenzamide] | 0.31 | 82% |
| O=C1CCC(N2Cc3c(OCc4ccc(CN5CCN(c6ccc7cn(C8CCC(CNC(=O)c9cc(F)c(O)c(F)c9)CC8)nc7c6)CC5)cc4)cccc3C2=O)C(=O)N1 (racemic) [Example 6, N-{[(1r,4r)-4-{6-[4-({4-[({2-[(3RS)-2,6-Dioxopiperidin-3-yl]-1-oxo-2,3-dihydro-1H-isoindol-4-yl}oxy)methyl]phenyl}methyl)piperazin-1-yl]-2H-indazol-2-yl}cyclohexyl]methyl}-3,5-difluoro-4-hydroxybenzamide] | 1.4 | 76* % |
